Test results: EP4722212A1, “NOVEL COMPOUND FOR INHIBITING PROTEIN KINASES AND PHARMACEUTICAL COMPOSITION COMPRISING SAME” (Magicbullettherapeutics Co., Ltd., priority 2023, dated 2024)
Read-outs that look alike come from different tables or passages of the source.

Assays:
Assay in all cases: Kinase panel
Assay type in all cases: biochemical
FGFR4 = FGFR4 (Homo sapiens, UniProt P22455); conditions: FGFR4, 1 µM; read-out: residual enzyme activity
In short: (§1)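 Full kinase panel, biochemical readout. A single 1 µM compound concentration was tested, and residual activity was derived; kinases whose activity dropped to 40% or less were recorded.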

WNK2 = WNK2 (Homo sapiens, UniProt Q9Y3S1); conditions: WNK2, 1 µM; read-out: residual enzyme activity
In short: as §1

TAK1 = TAK1 (Homo sapiens, UniProt O43318); conditions: TAK1, 1 µM; read-out: residual enzyme activity
In short: as §1

PDK1/PDPK1 = PDK1/PDPK1 (Homo sapiens, UniProt O15530); conditions: PDK1/PDPK1, 1 µM; read-out: residual enzyme activity
In short: as §1

CLK4 = CLK4 (Homo sapiens, UniProt Q9HAZ1); conditions: CLK4, 1 µM; read-out: residual enzyme activity
In short: as §1

ASK1/MAP3K5 = ASK1/MAP3K5 (Homo sapiens, UniProt Q99683); conditions: ASK1/MAP3K5, 1 µM; read-out: residual enzyme activity
In short: as §1

CLK3 = CLK3 (Homo sapiens, UniProt P49761); conditions: CLK3, 1 µM; read-out: residual enzyme activity
In short: as §1

BRAF = BRAF (Homo sapiens, UniProt P15056); conditions: read-out: residual enzyme activity
In short: as §1

ERK2/MAPK1 = ERK2/MAPK1 (Homo sapiens, UniProt P28482); conditions: ERK2/MAPK1, 1 µM; read-out: residual enzyme activity
In short: as §1

MAK = MAK (Homo sapiens, UniProt P20794); conditions: read-out: residual enzyme activity
In short: as §1

DMPK2 = DMPK2 (Homo sapiens, UniProt Q6DT37); conditions: DMPK2, 1 µM; read-out: residual enzyme activity
In short: as §1

PIM3 = PIM3 (Homo sapiens, UniProt Q86V86); conditions: PIM3, 1 µM; read-out: residual enzyme activity
In short: as §1

CDK4/CYCLIN D2 = CDK4/CYCLIN D2 (Homo sapiens, UniProt P11802); conditions: CDK4/CYCLIN D2, 1 µM; read-out: residual enzyme activity
In short: as §1

PKG1A = PKG1A (Homo sapiens, UniProt Q13976); conditions: read-out: residual enzyme activity
In short: as §1

MSK1/RPS6KA5 = MSK1/RPS6KA5 (Homo sapiens, UniProt O75582); conditions: MSK1/RPS6KA5, 1 µM; read-out: residual enzyme activity
In short: as §1

STK32B/YANK2 = STK32B/YANK2 (Homo sapiens, UniProt Q9NY57); conditions: STK32B/YANK2, 1 µM; read-out: residual enzyme activity
In short: as §1

MLK3/MAP3K11 = MLK3/MAP3K11 (Homo sapiens, UniProt Q16584); conditions: MLK3/MAP3K11, 1 µM; read-out: residual enzyme activity
In short: as §1

MST4 = MST4 (Homo sapiens, UniProt Q9P289); conditions: MST4, 1 µM; read-out: residual enzyme activity
In short: as §1

MYO3A = MYO3A (Homo sapiens, UniProt Q8NEV4); conditions: read-out: residual enzyme activity
In short: as §1

NIM1 = NIM1 (Homo sapiens, UniProt Q8IY84); conditions: NIM1, 1 µM; read-out: residual enzyme activity
In short: as §1

CHK2 = CHK2 (Homo sapiens, UniProt O96017); conditions: CHK2, 1 µM; read-out: residual enzyme activity
In short: as §1

ARAF = conditions: 1 µM
In short: as §1

CDK6/CYCLIN D2 = CDK6/CYCLIN D2 (Homo sapiens, UniProt Q00534); conditions: CDK6/CYCLIN D2, 1 µM; read-out: residual enzyme activity
In short: as §1

MST1/STK4 = MST1/STK4 (Homo sapiens, UniProt Q13043); conditions: MST1/STK4, 1 µM; read-out: residual enzyme activity
In short: as §1

WEE1 = WEE1 (Homo sapiens, UniProt P30291); conditions: WEE1, 1 µM; read-out: residual enzyme activity
In short: as §1

PDGFRB = PDGFRB (Homo sapiens, UniProt P09619); conditions: read-out: residual enzyme activity
In short: as §1

PHKG1 = PHKG1 (Homo sapiens, UniProt Q16816); conditions: read-out: residual enzyme activity
In short: as §1

DDR1 = DDR1 (Homo sapiens, UniProt Q08345); conditions: DDR1, 1 µM; read-out: residual enzyme activity
In short: as §1

FRK/PTKS = FRK/PTKS (Homo sapiens, UniProt P42685); conditions: read-out: residual enzyme activity
In short: as §1

RIPK3 = RIPK3 (Homo sapiens, UniProt Q9Y572); conditions: RIPK3, 1 µM; read-out: residual enzyme activity
In short: as §1

CDK19/cyclin C = CDK19/cyclin C (Homo sapiens, UniProt Q9BWU1); conditions: read-out: residual enzyme activity
In short: as §1

PKMYT1 = PKMYT1 (Homo sapiens, UniProt Q99640); conditions: PKMYT1, 1 µM; read-out: residual enzyme activity
In short: as §1

CDK8/cyclin C = CDK8/cyclin C (Homo sapiens, UniProt P49336); conditions: read-out: residual enzyme activity
In short: as §1

Chain of MAK (P20794 whole entry): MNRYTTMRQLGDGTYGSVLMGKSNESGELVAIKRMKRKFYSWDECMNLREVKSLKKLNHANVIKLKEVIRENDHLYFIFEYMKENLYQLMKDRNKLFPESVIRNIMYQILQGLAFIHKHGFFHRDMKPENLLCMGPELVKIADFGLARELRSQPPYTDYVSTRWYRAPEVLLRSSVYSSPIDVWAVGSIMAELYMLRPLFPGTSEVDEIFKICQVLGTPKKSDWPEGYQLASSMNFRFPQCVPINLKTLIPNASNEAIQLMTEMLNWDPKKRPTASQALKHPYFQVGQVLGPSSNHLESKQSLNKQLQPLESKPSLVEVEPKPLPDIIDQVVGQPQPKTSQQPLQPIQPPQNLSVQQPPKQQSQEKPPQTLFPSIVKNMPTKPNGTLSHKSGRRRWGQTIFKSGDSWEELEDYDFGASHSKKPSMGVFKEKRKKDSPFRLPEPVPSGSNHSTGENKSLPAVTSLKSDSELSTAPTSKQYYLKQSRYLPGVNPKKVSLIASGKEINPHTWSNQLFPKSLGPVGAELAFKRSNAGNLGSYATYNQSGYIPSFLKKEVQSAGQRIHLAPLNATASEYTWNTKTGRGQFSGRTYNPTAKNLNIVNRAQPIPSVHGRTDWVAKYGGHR
Chain of BRAF (P15056 whole entry, species assumed): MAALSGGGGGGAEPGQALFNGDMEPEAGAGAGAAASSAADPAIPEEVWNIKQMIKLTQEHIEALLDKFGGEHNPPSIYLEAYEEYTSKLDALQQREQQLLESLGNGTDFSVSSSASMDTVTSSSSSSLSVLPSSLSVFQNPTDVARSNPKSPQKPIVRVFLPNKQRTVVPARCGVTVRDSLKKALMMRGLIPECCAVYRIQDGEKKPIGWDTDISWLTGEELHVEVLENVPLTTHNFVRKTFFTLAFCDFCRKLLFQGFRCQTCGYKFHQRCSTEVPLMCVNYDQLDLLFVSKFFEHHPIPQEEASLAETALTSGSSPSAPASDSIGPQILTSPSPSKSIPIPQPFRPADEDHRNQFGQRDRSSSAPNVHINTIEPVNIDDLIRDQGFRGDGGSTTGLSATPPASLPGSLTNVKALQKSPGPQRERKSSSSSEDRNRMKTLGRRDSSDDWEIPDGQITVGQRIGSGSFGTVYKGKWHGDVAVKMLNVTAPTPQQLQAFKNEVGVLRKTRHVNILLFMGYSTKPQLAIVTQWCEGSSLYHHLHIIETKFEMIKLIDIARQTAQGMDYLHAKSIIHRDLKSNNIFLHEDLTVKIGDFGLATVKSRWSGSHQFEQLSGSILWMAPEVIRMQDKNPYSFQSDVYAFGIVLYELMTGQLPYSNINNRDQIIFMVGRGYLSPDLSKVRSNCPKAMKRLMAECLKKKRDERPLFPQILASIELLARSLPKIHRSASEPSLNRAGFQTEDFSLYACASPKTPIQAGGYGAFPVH
Chain of MYO3A (Q8NEV4 whole entry, species assumed): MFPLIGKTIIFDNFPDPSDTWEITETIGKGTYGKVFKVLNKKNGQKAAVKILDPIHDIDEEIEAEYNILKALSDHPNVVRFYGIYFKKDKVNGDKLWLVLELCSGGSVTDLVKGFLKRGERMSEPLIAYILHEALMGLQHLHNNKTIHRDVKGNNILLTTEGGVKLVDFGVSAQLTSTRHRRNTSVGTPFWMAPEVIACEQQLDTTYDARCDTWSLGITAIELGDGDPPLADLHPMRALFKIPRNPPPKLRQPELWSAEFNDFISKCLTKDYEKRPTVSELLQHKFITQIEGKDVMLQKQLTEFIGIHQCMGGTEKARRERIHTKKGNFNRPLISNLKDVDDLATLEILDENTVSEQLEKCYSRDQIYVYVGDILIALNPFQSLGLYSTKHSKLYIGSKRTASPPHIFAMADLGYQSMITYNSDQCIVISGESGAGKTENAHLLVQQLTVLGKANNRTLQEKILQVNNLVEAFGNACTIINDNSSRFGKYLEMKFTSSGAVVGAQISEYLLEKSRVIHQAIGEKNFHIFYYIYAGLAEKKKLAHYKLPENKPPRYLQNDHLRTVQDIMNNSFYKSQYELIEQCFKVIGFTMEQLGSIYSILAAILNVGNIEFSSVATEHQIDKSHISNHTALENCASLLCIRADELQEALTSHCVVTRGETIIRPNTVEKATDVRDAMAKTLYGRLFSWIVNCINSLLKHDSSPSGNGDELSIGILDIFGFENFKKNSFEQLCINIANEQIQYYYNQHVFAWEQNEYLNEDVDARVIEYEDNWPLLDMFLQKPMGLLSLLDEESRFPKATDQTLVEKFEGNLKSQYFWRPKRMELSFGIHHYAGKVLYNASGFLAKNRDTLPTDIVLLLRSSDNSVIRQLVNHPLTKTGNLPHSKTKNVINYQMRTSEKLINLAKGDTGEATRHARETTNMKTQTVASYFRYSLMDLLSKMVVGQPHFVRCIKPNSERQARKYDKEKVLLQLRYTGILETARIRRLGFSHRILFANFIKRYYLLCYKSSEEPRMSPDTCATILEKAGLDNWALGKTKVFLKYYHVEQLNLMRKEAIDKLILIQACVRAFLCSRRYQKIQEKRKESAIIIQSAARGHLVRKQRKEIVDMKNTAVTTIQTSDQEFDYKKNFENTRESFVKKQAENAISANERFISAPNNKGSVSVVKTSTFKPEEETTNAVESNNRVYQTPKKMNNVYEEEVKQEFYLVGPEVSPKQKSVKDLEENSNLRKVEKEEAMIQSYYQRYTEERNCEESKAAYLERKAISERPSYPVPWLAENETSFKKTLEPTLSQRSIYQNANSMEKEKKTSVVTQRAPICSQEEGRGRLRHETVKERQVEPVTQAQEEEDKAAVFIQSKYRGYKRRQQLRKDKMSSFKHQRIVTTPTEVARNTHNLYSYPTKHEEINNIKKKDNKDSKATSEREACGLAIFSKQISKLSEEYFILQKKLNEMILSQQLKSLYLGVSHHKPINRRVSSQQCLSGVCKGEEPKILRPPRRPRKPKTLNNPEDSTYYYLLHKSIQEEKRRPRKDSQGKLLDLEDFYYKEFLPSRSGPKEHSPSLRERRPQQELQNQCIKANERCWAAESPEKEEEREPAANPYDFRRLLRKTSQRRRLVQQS
Chain of TAK1 (O43318 1-303 limits assumed): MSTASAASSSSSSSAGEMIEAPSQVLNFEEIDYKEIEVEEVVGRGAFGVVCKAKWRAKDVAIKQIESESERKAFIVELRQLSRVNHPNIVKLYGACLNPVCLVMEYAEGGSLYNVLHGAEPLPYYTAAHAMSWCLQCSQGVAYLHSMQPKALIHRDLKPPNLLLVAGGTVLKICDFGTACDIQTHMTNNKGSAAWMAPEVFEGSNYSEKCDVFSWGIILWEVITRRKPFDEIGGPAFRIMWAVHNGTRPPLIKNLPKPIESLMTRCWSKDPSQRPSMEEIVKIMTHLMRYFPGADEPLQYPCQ
Chain of MST4 (Q9P289 whole entry, species assumed): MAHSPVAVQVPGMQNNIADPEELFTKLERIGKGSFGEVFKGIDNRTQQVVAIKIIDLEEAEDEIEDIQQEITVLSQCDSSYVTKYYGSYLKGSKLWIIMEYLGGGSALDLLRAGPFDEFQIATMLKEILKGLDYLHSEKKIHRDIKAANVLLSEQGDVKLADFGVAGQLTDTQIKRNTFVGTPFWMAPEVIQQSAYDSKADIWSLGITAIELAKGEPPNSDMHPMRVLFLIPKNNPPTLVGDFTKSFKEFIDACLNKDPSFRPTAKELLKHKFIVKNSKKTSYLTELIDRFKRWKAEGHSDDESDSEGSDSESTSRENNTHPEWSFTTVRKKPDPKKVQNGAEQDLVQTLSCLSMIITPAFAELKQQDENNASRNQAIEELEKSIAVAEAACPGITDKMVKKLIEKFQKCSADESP
Chain of PDK1/PDPK1 (O15530 whole entry): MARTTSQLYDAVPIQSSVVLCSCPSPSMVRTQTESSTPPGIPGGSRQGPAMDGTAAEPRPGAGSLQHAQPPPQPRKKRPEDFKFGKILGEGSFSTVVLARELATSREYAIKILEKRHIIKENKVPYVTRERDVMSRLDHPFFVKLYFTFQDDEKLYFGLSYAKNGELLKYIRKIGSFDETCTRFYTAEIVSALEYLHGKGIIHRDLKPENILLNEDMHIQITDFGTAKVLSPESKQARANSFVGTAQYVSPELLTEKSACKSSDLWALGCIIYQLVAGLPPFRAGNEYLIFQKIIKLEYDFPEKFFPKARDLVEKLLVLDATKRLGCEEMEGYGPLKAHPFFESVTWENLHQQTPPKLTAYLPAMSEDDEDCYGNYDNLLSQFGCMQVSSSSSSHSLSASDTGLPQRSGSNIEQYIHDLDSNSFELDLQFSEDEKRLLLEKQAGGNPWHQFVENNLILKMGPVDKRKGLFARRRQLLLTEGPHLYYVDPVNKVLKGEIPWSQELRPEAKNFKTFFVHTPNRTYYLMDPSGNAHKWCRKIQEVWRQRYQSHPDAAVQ
Chain of WEE1 (P30291 whole entry, species assumed): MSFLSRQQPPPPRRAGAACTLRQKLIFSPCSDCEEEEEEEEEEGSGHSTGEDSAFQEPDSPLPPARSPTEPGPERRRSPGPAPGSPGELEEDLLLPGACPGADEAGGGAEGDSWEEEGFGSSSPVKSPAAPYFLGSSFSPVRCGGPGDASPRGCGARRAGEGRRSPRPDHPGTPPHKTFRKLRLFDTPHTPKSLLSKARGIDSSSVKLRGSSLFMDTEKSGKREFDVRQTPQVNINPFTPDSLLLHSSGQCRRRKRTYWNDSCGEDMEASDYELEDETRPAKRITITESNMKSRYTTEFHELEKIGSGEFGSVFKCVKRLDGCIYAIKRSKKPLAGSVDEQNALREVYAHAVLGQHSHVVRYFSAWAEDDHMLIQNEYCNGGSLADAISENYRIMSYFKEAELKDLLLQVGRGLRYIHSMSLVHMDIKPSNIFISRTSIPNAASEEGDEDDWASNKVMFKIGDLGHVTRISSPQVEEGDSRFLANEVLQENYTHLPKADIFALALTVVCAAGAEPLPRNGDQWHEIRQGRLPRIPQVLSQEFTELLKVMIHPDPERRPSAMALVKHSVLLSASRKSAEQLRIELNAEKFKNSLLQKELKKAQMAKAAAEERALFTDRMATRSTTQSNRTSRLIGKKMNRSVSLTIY

SMILES | remaining activity at 1 µM (FGFR4) | remaining activity at 1 µM (WNK2) | remaining activity at 1 µM (TAK1) | remaining activity at 1 µM (PDK1/PDPK1) | remaining activity at 1 µM (CLK4) | remaining activity at 1 µM (ASK1/MAP3K5) | remaining activity at 1 µM (CLK3) | remaining activity at 1 µM (BRAF) | remaining activity at 1 µM (ERK2/MAPK1) | remaining activity at 1 µM (MAK) | remaining activity at 1 µM (DMPK2) | remaining activity at 1 µM (PIM3) | remaining activity at 1 µM (MSK1/RPS6KA5) | remaining activity at 1 µM (STK32B/YANK2) | remaining activity at 1 µM (MLK3/MAP3K11) | remaining activity at 1 µM (MST4) | remaining activity at 1 µM (MYO3A) | remaining activity at 1 µM (NIM1) | remaining activity at 1 µM (CHK2) | residual enzyme activity (ARAF) | other results
Cc1cn(-c2cc(C(=O)Nc3ccc(C)c(N4Cc5cnc(NC6CC6)nc5C5(CC5)C4=O)c3)cc(C(F)(F)F)c2)cn1 [Compound 8, N-(3-(2'-(cyclopropylamino)-7'-oxo-5'H-spiro[cyclopropane-1,8'-pyrido[4,3-d]pyrimidine]-6'(7'H)-yl)-4-methylphenyl)-3-(4-methyl-1H-imidazol-1-yl)-5-(trifluoromethyl)benzamide] | ≤ 40% | > 40% | ≤ 40% | > 40% | > 40% | > 40% | > 40% | ≤ 40% | > 40% | > 40% | > 40% | > 40% | > 40% | ≤ 40% | ≤ 40% | > 40% | > 40% | > 40% | > 40% | O (residual enzyme activity values were 40% or less, i.e., inhibited by 60% or more) | remaining activity at 1 µM (CDK4/CYCLIN D2): > 40%; remaining activity at 1 µM (PKG1A; PKG1A): > 40%; remaining activity at 1 µM (CDK6/CYCLIN D2): > 40%; remaining activity at 1 µM (MST1/STK4): > 40%; remaining activity at 1 µM (WEE1): > 40%; remaining activity at 1 µM (PDGFRB): ≤ 40%; remaining activity at 1 µM (PHKG1; PHKG1, 1 µM): > 40%; remaining activity at 1 µM (DDR1): ≤ 40%; remaining activity at 1 µM (FRK/PTKS): ≤ 40%
Cc1ccc(Nc2ncc3c(n2)C2(CC2)C(=O)N(c2cc(NC(=O)c4cccc(C(F)(F)F)c4)ccc2C)C3)cn1 [Compound 51, N-(4-methyl-3-(2'-((6-methylpyridin-3-yl)amino)-7'-oxo-5'H-spiro[cyclopropane-1,8'-pyrido[4,3-d]pyrimidine]-6'(7'H)-yl)phenyl)-3-(trifluoromethyl)benzamide] | ≤ 40% | > 40% | ≤ 40% | > 40% | > 40% | > 40% | > 40% | ≤ 40% | > 40% | > 40% | > 40% | > 40% | > 40% | ≤ 40% | ≤ 40% | > 40% | > 40% | > 40% | > 40% | O (residual enzyme activity values were 40% or less, i.e., inhibited by 60% or more) | remaining activity at 1 µM (RIPK3): ≤ 40%; remaining activity at 1 µM (PKG1A; PKGla): > 40%; remaining activity at 1 µM (CDK19/cyclin C): > 40%; remaining activity at 1 µM (PKMYT1): > 40%; remaining activity at 1 µM (MST1/STK4): > 40%; remaining activity at 1 µM (CDK8/cyclin C): > 40%; remaining activity at 1 µM (WEE1): > 40%; remaining activity at 1 µM (PDGFRB): ≤ 40%; remaining activity at 1 µM (PHKG1; PHKgl, 1 µM): > 40%; remaining activity at 1 µM (DDR1): ≤ 40%; remaining activity at 1 µM (FRK/PTKS): ≤ 40%
